According to patent US20050261290A1, “Novel compounds of proline and morpholine derivatives” (priority 2004, published 2005):
pKi: −log10 of the molar value. Where two headings read alike, the source gives them in different places.

Molecular target: human 11b-hsd-1 (Homo sapiens, UniProt P28845)
Assay: Inhibition constant Ki of human 11b-hsd-1 (3H-cortisone to 3H-cortisol conversion, HPLC)
Type: biochemical
Conditions: for pKi: apparent Ki, read-out: Ki app
Description: In each well, varying amounts of compounds are incubated with a fixed amount of 11b-hsd-1 (4 nM) and NADPH (500 μM) for 30 to 40 min at room temperature in the assay buffer. The enzyme concentration was determined by titration using reversible tight-binding inhibitors. […] The area of 3H-cortisol is calculated and plotted versus time to determine a linear velocity. […] Where vi, and vo are the rates of cortisol formation in the presence and in the absence of inhibitor, respectively, I is the inhibitor concentration and E is the 11 b-hsd-1 concentration in the assay buffer. […] NADPH, Glucose-6-Phosphate (G6P), and Glucose-6-Phosphate dehydrogenase was purchased from Sigma.

Sequence of human 11b-hsd-1 (P28845 whole entry): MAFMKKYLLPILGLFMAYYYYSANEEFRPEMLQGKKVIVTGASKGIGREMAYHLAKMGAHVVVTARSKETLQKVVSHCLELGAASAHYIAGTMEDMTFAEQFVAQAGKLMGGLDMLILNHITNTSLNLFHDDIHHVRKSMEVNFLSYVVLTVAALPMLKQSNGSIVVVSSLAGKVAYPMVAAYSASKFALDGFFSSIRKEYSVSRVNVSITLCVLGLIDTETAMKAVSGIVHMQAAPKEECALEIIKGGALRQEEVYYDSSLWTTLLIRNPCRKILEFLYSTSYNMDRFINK

| SMILES | inhibition at 0.1 µM (0.1 μM compound) [%] | pKi | inhibition at 0.1 µM (compound at 0.1 μM) [%] | also measured |
| --- | --- | --- | --- | --- |
| Cc1cc(F)ccc1O[C@@H]1CN[C@H](C(=O)NC2C3CC4CC(C3)CC2C4)C1 (stereo partly drawn) [Example 356] | 100 | 8.85 | – | – |
| CCCN1CCC[C@@H]1C(=O)NC12CC3CC(CC(C3)C1)C2 [Example 21] | – | – | 100 | pKi (human 11b-hsd-1): 8.92 |
| CCCN1CCC[C@@H]1C(=O)NC1CCCCC1 [Example 85] | – | – | 94 | pKi (human 11b-hsd-1): 8.05 |
| O=C(NC1CCCCC1)[C@H]1CCCN1CC1CCCO1 (stereo partly drawn) [Example 97] | – | – | – | pKi (human 11b-hsd-1): 8.15; % inh @ 0.1 μM (compound at 0.1 μM, 0.1 µM): 100% |
| CN(C)CCN1C[C@H](O)C[C@@H]1C(=O)NC1C2CC3CC(C2)CC1C3 (stereo partly drawn) [Example 43] | – | – | 31.9 | – |
| O=C(NC12CC3CC(CC(C3)C1)C2)[C@H]1CCCN1CC1CCCCC1 [Example 9, N-1-adamantyl-1-(cyclohexylmethyl)-D-prolinamide] | – | – | 100 | pKi (human 11b-hsd-1): 8.77 |
| CN(C(=O)C1CCCCN1Cc1ccc(Cl)cc1)C1CCCCC1 (stereo not drawn) [Example 193] | 100 | 7.85 | – | – |
| O=C(NC1C2CC3CC(C2)CC1C3)[C@@H]1C[C@H](Oc2ccc(F)cc2)CN1 (stereo partly drawn) [Example 321] | 100 | 9.00 | – | – |
| O=C(NC1CCCCC1)[C@@H]1C[C@H](Oc2c(F)cc(F)cc2F)CN1 [Example 372] | 97.4 | – | – | – |
| COc1cc(F)ccc1O[C@@H]1CN[C@H](C(=O)NC2C3CC4CC(C3)CC2C4)C1 (stereo partly drawn) [Example 353] | 100 | 8.31 | – | – |
| O=C(NC12CC3CC(CC(C3)C1)C2)[C@H]1[C@H]2CC[C@H](C2)N1Cc1ccc(Cl)cc1 (relative stereo) [Example 203] | 100 | 9.00 | – | – |
| O=C(NCc1ccc(F)cc1)[C@H]1CCCN1CCC(F)(F)F [Example 324] | 69.2 | 7.16 | – | – |
| O=C(NC1C2CC3CC(C2)CC1C3)[C@H]1CCCN1CCN1CCOCC1 (stereo partly drawn) [Example 128] | – | – | 100 | – |
| O=C(NC1C2CC3CC(C2)CC1C3)[C@H]1C[C@@H](O)CN1Cc1ccc(F)cc1 (stereo partly drawn) [Example 27] | – | – | 100 | pKi (human 11b-hsd-1): 8.96 |
| Cc1cc(Cl)ccc1O[C@@H]1CN[C@H](C(=O)NC2C3CC4CC(C3)CC2C4)C1 (stereo partly drawn) [Example 349] | 100 | 8.74 | – | – |
| O=C(NC1C2CC3CC(C2)CC1C3)[C@@H]1C[C@H](Oc2ccc(Cl)c(F)c2)CN1 (stereo partly drawn) [Example 365] | 100 | 9.00 | – | – |
| CC(C)CN1CCC[C@@H]1C(=O)N[C@@H]1CCCc2ccccc21 [Example 51] | – | – | 100 | pKi (human 11b-hsd-1): 9.00 |
| CC(C)CN1CCC[C@@H]1C(=O)NCC1(O)CCCCC1 [Example 69] | – | – | 100 | pKi (human 11b-hsd-1): 8.15 |
| CCCN1CCC[C@@H]1C(=O)NC1(C)CCCCC1 [Example 104] | – | – | 100 | pKi (human 11b-hsd-1): 8.22 |
| CC(C)CN1CCC[C@@H]1C(=O)NC12CC3CC(CC(C3)C1)C2 [Example 205] | 100 | 8.50 | – | – |
| O=C(NCc1cccc(F)c1)[C@H]1CCCN1CC1CCCC1 [Example 240] | 76.3 | 7.36 | – | – |

| SMILES | inhibition at 0.1 µM (0.1 μM compound) [%] | pKi | inhibition at 0.1 µM (compound at 0.1 μM) [%] | also measured |
| --- | --- | --- | --- | --- |
| CCCN1CCC[C@@H]1C(=O)NC1CC2CCC1C2 (stereo partly drawn) [Example 92] | – | – | – | % inh @ 0.1 μM (compound at 0.1 μM): 100% |
| O=C(NC1C2CC3CC(C2)CC1C3)[C@H]1CCCNC1 (stereo partly drawn) [Example 121, Piperidine-3-carboxylic acid adamantan-2-ylamide] | – | – | 17 | – |
| CC(C)(C)OC(=O)N1CCC[C@@H]1CN1CCC[C@@H]1C(=O)NC1C2CC3CC(C2)CC1C3 (stereo partly drawn) [Example 113] | – | – | 100 | – |
| O=C(NCc1ccc(F)cc1F)[C@H]1CCCN1Cc1ccc(Cl)cc1 [Example 243] | 84.9 | 7.82 | – | – |
| CC(C)CN1CCC[C@@H]1C(=O)NC12C3C4C1C1C2C3C41C (stereo partly drawn) [Example 122] | – | – | 100 | – |
| O=C(NCc1c(F)cccc1F)[C@H]1CCCN1Cc1ccc(Cl)cc1 [Example 244] | 87.1 | 7.74 | – | – |
| O=C(NCc1ccc(F)cc1)[C@H]1CCCN1Cc1ccccc1 [Example 214] | 82.7 | 7.23 | – | – |
| CC(C)CN1CSC[C@H]1C(=O)N(C)C1CCCCC1 [Example 195] | 100 | 7.89 | – | – |
| CC(C)CN1CCC[C@@H]1C(=O)NCC1(O)CCCC1 [Example 330] | 83.5 | 7.52 | – | – |
| CC1(C)CC(NC(=O)C2COCCN2CC2CCCC2)CC(C)(C)C1 (stereo not drawn) [Example 190] | – | – | 100 | pKi (human 11b-hsd-1): 8.96 |
| CCCN1CCC[C@@H]1C(=O)NCc1ccc(OC)cc1 [Example 218] | 91.1 | 5.60 | – | – |
| N#Cc1ccc(CN2CCC[C@@H]2C(=O)NC2CCCCC2)cc1 [Example 52] | – | – | 100 | pKi (human 11b-hsd-1): 8.34 |
| O=C(NCc1ccc(Cl)cc1)[C@H]1CCCN1CC1CCCCC1 [Example 13] | – | – | 85 | pKi (human 11b-hsd-1): 9.00 |
| CCN1[C@@H](C(=O)NC2CCCCC2)CCC1(C)C [Example 131] | – | – | 88 | – |
| O=C(NC1C2CC3CC(C2)CC1C3)[C@H]1CCCN1CC1CCNCC1 (stereo partly drawn) [Example 144] | – | – | 87 | – |
| CC(C)CN1CCC[C@@H]1C(=O)NCc1ccc(Cl)cc1 [Example 221] | 95.7 | 8.23 | – | – |
| CC(C)CN1[C@H]2CC[C@H](C2)[C@H]1C(=O)NC12CC3CC(CC(C3)C1)C2 (relative stereo) [Example 209] | 100 | 8.72 | – | – |
| CN(C(=O)[C@H]1CSCN1Cc1ccc(Cl)cc1)C1CCCCC1 [Example 194] | 86.2 | 7.60 | – | – |
| O=C(NC1CCCCC1)[C@H]1C[C@@H](O)CN1Cc1ccc(F)cc1 [Example 31] | – | – | 53 | – |
| O=C(NC1C2CC3CC(C2)CC1C3)[C@H]1CNC[C@H](c2ccccc2)C1 (stereo partly drawn) [Example 346] | 90.2 | 7.74 | – | – |
| CC(C)CN1CCC[C@@H]1C(=O)NCc1ccccc1F [Example 220] | 96.7 | 8.29 | – | – |

| SMILES | inhibition at 0.1 µM (0.1 μM compound) [%] | pKi | inhibition at 0.1 µM (compound at 0.1 μM) [%] | also measured |
| --- | --- | --- | --- | --- |
| O=C(NCc1ccccc1)[C@H]1CCCN1CC1CC1 [Example 224] | 90 | 6.72 | – | – |
| CC(C)CN1C[C@H](O)C[C@@H]1C(=O)NCC1CCCCC1 [Example 337] | 97.8 | 7.89 | – | – |
| O=C(NC1CCCCC1)[C@H]1CCCN1CC(F)(F)F [Example 101] | – | – | 100 | pKi (human 11b-hsd-1): 8.30 |
| Cc1ccc(CNC(=O)[C@H]2CCCN2CC(C)C)cc1 [Example 259] | 100 | 7.96 | – | – |
| Cc1cc(C)cc(O[C@@H]2CN[C@H](C(=O)NC3C4CC5CC(C4)CC3C5)C2)c1 (stereo partly drawn) [Example 347] | 96.6 | 8.48 | – | – |
| CN(C(=O)[C@@H]1CSCN1Cc1ccc(Cl)cc1)C1CCCCC1 [Example 192] | 100 | 8.02 | – | – |
| CS(=O)(=O)N1CCC[C@@H]1CN1CCC[C@@H]1C(=O)NC1C2CC3CC(C2)CC1C3 (stereo partly drawn) [Example 134] | – | – | 96 | – |
| CCC(C)N1CCC[C@@H]1C(=O)NC1CCCCC1 (stereo partly drawn) [Example 105] | – | – | 82 | pKi (human 11b-hsd-1): 7.82 |
| O=C(N[C@@H]1CCc2ccccc21)[C@H]1CCCN1Cc1ccccc1 [Example 283] | 100 | 8.25 | – | – |
| O=C(N[C@@H]1CCCc2ccccc21)[C@H]1COCCN1CC1CCCC1 [Example 318] | 84.8 | 7.89 | – | – |
| O=C(NC1CCCCC1)[C@H]1CCCN1C1CCC1 [Example 103] | – | – | 83 | pKi (human 11b-hsd-1): 7.85 |
| N#Cc1ccc(CN2CCC[C@@H]2C(=O)NC23CC4CC(CC(C4)C2)C3)cc1 [Example 254] | 100 | 9.00 | – | – |
| CCCN1CCOC[C@@H]1C(=O)NC1CCCCC1 [Example 331] | 86.6 | 7.59 | – | – |
| C[C@@H](NC(=O)[C@H]1COCCN1CC1CCCC1)c1ccccc1 [Example 309] | 86.1 | 7.49 | – | – |
| CCCN1CCC[C@@H]1C(=O)NC1CCCCC1C (stereo partly drawn) [Example 55] | – | – | 100 | pKi (human 11b-hsd-1): 8.43 |
| CCCN1CCC[C@@H]1C(=O)NCc1ccccc1 [Example 217] | 84.6 | 6.77 | – | – |
| CC(C)CN1CCOC[C@@H]1C(=O)NCC1CCCCC1 [Example 336] | 100 | 9.00 | – | – |
| C[C@H](N)CN1CCC[C@@H]1C(=O)NC1C2CC3CC(C2)CC1C3 (stereo partly drawn) [Example 176] | – | – | 100 | – |
| CS(=O)(=O)N1CCC(CN2CCC[C@@H]2C(=O)NC2C3CC4CC(C3)CC2C4)CC1 (stereo partly drawn) [Example 140] | – | – | 100 | – |
| O=C(NCc1ccccc1Cl)[C@H]1CCCN1CCc1ccccc1 [Example 271] | 83.8 | 7.59 | – | – |
